Data as given in PubChem BioAssay (NCI).
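Test compounds were applied to cells in 96-well plates for 48 hours at 5 doses. TGI: concentration producing complete growth inhibition.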

Tests used:
Assay in all cases: NCI tumour cell line growth inhibition, 48 h
[1] = tested on: SF-295 CNS
[2] = tested on: HCC-2998 colon
[3] = tested on: HCT-116 colon
[4] = tested on: OVCAR-4 ovarian
[5] = tested on: HCT-15 colon
[6] = tested on: CCRF-CEM leukemia
[7] = tested on: CAKI-1 renal
[8] = tested on: M14 melanoma
[9] = tested on: U251 CNS
[10] = tested on: UACC-62 melanoma
[11] = tested on: LOX IMVI melanoma
[12] = tested on: SK-OV-3 ovarian
[13] = tested on: TK-10 renal
[14] = tested on: OVCAR-3 ovarian
[15] = tested on: HOP-92 NSCLC
[16] = tested on: HS 578T breast
[17] = tested on: SF-268 CNS
[18] = tested on: SW-620 colon
[19] = tested on: A549 NSCLC
[20] = tested on: MOLT-4 leukemia
[21] = tested on: SNB-19 CNS
[22] = tested on: NCI-H460 lung
[23] = tested on: UO-31 renal
[24] = tested on: NCI-H522 lung
[25] = tested on: KM12 colon
[26] = tested on: DU-145 prostate
[27] = tested on: ACHN renal
[28] = tested on: SF-539 CNS
[29] = tested on: 786-0 renal
[30] = tested on: MCF7 breast
[31] = tested on: NCI-H23 lung
[32] = tested on: MDA-N
[33] = tested on: NCI/ADR-RES ovarian
[34] = tested on: SK-MEL-28 melanoma
[35] = tested on: RXF 393 renal
[36] = tested on: EKVX NSCLC
[37] = tested on: COLO 205 colon
[38] = tested on: HOP-62 NSCLC
[39] = tested on: SK-MEL-5 melanoma
[40] = tested on: OVCAR-5 ovarian
[41] = tested on: OVCAR-8 ovarian
[42] = tested on: SN12C renal
[43] = tested on: SK-MEL-2 melanoma
[44] = tested on: UACC-257 melanoma
[45] = tested on: BT-549 breast
[46] = tested on: PC-3 prostate
[47] = tested on: MDA-MB-435
[48] = tested on: IGROV1 ovarian
[49] = tested on: SNB-75 CNS
[50] = tested on: MDA-MB-231 breast
[51] = tested on: T-47D breast
[52] = tested on: NCI-H226 lung
[53] = tested on: RPMI-8226 leukemia
[54] = tested on: HT29 colon
[55] = tested on: K-562 leukemia
[56] = tested on: MALME-3M melanoma
[57] = tested on: HL-60(TB) leukemia

SMILES: Cc1cc(O)c(/C=N/C(=O)NN)c(=O)o1
- TGI [1]: > 100 µM
- TGI [2]: > 100 µM
- TGI [3]: > 100 µM
- TGI [4]: > 100 µM
- TGI [5]: > 100 µM
- TGI [6]: > 100 µM
- TGI [7]: > 100 µM
- TGI [8]: > 100 µM
- TGI [9]: > 100 µM
- TGI [10]: > 100 µM
- TGI [11]: > 100 µM
- TGI [12]: > 100 µM
- TGI [13]: > 100 µM
- TGI [14]: > 100 µM
- TGI [15]: > 100 µM
- TGI [16]: > 100 µM
- TGI [17]: > 100 µM
- TGI [18]: > 100 µM
- TGI [19]: > 100 µM
- TGI [20]: > 100 µM
- TGI [21]: > 100 µM
- TGI [22]: > 100 µM
- TGI [23]: > 100 µM
- TGI [24]: > 100 µM
- TGI [25]: > 100 µM
- TGI [26]: > 100 µM
- TGI [27]: > 100 µM
- TGI [28]: > 100 µM
- TGI [29]: > 100 µM
- TGI [30]: > 100 µM
- TGI [31]: > 100 µM
- TGI [32]: > 100 µM
- TGI [33]: > 100 µM
- TGI [34]: > 100 µM
- TGI [35]: > 100 µM
- TGI [36]: > 100 µM
- TGI [37]: > 100 µM
- TGI [38]: > 100 µM
- TGI [39]: > 100 µM
- TGI [40]: > 100 µM
- TGI [41]: > 100 µM
- TGI [42]: > 100 µM
- TGI [43]: > 100 µM
- TGI [44]: > 100 µM
- TGI [45]: > 100 µM
- TGI [46]: > 100 µM
- TGI [47]: > 100 µM
- TGI [48]: > 100 µM
- TGI [49]: > 100 µM
- TGI [50]: > 100 µM

SMILES: CCCCCCCCCCOC1C(C(C)OCCCN(C)C)OC2OC3(CCCCC3)OC21 (centres undefined)
- TGI [1]: 32.7 µM
- TGI [2]: 29.3 µM
- TGI [3]: 26.4 µM
- TGI [4]: 27.5 µM
- TGI [51]: 35.7 µM
- TGI [5]: 17.5 µM
- TGI [6]: 25.4 µM
- TGI [7]: 28 µM
- TGI [8]: 10.2 µM
- TGI [52]: 38.1 µM
- TGI [9]: 28.4 µM
- TGI [10]: 26.2 µM
- TGI [11]: 10.7 µM
- TGI [12]: 32.7 µM
- TGI [53]: 17.4 µM
- TGI [54]: 11 µM
- TGI [13]: 38.6 µM
- TGI [55]: 12.6 µM
- TGI [14]: 29.1 µM
- TGI [15]: 16.3 µM
- TGI [16]: 35.8 µM
- TGI [17]: 30.5 µM
- TGI [18]: 27.1 µM
- TGI [19]: 30.8 µM
- TGI [20]: 30.6 µM
- TGI [21]: 25.5 µM
- TGI [22]: 22.7 µM
- TGI [23]: 31.7 µM
- TGI [24]: 34 µM
- TGI [26]: 31.2 µM
- TGI [27]: 31.4 µM
- TGI [56]: 29.5 µM
- TGI [29]: 30.9 µM
- TGI [30]: 42.8 µM
- TGI [31]: 23.8 µM
- TGI [32]: 21.8 µM
- TGI [33]: 32.2 µM
- TGI [34]: 25.5 µM
- TGI [57]: 20.7 µM
- TGI [35]: 31 µM
- TGI [36]: 33 µM
- TGI [37]: 14.6 µM
- TGI [38]: 31.4 µM
- TGI [39]: 29.5 µM
- TGI [40]: 25.2 µM
- TGI [41]: 34.6 µM
- TGI [42]: 30.3 µM
- TGI [43]: 30.4 µM
- TGI [44]: 35.5 µM
- TGI [46]: 25.2 µM
- TGI [47]: 30.3 µM
- TGI [48]: 28.1 µM
- TGI [49]: 20.1 µM
- TGI [50]: 29.8 µM
